Experimental data reported in patent US9156828B2, “Tricyclic amidine derivatives as HIV attachment inhibitors” (priority 2012, dated 2015).
Read-outs that look alike come from different tables or passages of the source.

System: HIV-1 LAI envelope single-round infectious reporter virus
Assay: Single-round infectious HIV-1 LAI luciferase reporter virus infection of MT2 cells
Format: cell-based
Conditions: Human immunodeficiency virus 1, MT2, 72 h
From the text: Virus Production— • Human embryonic Kidney cell line, 293T (HEK 293T), was propagated in Dulbecco's Modified Eagle Medium (Invitrogen, Carlsbad, Calif.) containing 10% fetal bovine serum (FBS, Sigma, St. Louis, Mo.). The human T-cell leukemia cell MT2 (AIDS Research and Reference Reagent Program, Cat. 237) was propagated in RPMI 1640 (Invitrogen, Carlsbad, Calif.) containing 10% fetal bovine serum (FBS, Hyclone, Logan, Utah)
Virus Infection— • Single-round infectious reporter virus was produced by co-transfecting HEK 293T cells with plasmide expressing the HIV-1 LAI envelope along with a plasmid containing an HIV-1 LAI proviral cDNA with the envelope gene replaced by a firefly luciferase reporter gene (Chen et al., Ref 41). Transfections were performed using lipofectAMINE PLUS reagent as described by the manufacturer (Invitrogen, Carlsbad, Calif.). Experimental Procedure • 1. MT2 cells were plated in black, 384 well plates at a cell density of 5×10^3 cells per well in […] RPMI 1640 containing 10% FBS. • 2. Compound (diluted in dimethylsulfoxide and growth medium) was added to cells at 12.5 μl/well, so that the final assay concentration would be […]. • 3. 12.5 μl of single-round infectious reporter virus in Dulbecco's Modified Eagle Medium was added to the plated cells and compound at an approximate multiplicity of infection (MOI) of 0.01, resulting in a final volume of 50 μl per well. • 4. Virus-infected cells were incubated at 37 degrees Celsius in a CO2 incubator and harvested 72 h after infection. • 5. Viral infection was monitored by measuring luciferase expression in the infected cells using a luciferase reporter gene assay kit (Steady-Glo, Promega, Madison, Wis.) as described by the manufacturer. Luciferase activity was then quantified by measuring luminescence using an EnVision Multilabel Plate Readers (PerkinElmer, Waltham, Mass.). • 6. The percent inhibition for each compound was calculated by quantifying the level of luciferase expression in cells infected in the presence of each compound as a percentage of that observed for cells infected in the absence of compound and subtracting such a determined value from 100. • 7. An EC50 provides a method for comparing the antiviral potency of the compounds herein. The effective concentration for fifty percent inhibition (EC50) was calculated with the Microsoft Excel Xlfit curve fitting software. For each compound, curves were generated from percent inhibition calculated at 10 different concentrations by using a four parameter logistic model (model 205). Table 1 is the key for the data in Table 2.

[1] = read-out: EC50 Group from Table 1

Compound | EC50 | EC50 [1]
O=C(C(=O)N1CCN(C2=Nc3ccccc3Oc3ccc(Cl)cc32)CC1)c1c[nH]c2ccccc12 [Compound 1001] | 0.706 µM | > 0.5 µM
O=C(C(=O)N1CCN(C2=Nc3cc(Cl)ccc3Nc3ccccc32)CC1)c1c[nH]c2ccccc12 [Compound 1002] |  | > 0.5 µM
COc1cnc(-n2cncn2)c2[nH]cc(C(=O)C(=O)N3CCN(C4=Nc5ccccc5Oc5ccc(Cl)cc54)CC3)c12 [Compound 1003] |  | < 0.5 µM
O=C(C(=O)N1CCN(C2=Nc3ccccc3Oc3ccc(Cl)cc32)CC1)c1c[nH]c2c(Br)ccc(F)c12 [Compound 1004] |  | > 0.5 µM
COc1cnc(-n2cnc(C)n2)c2[nH]cc(C(=O)C(=O)N3CCN(C4=Nc5ccccc5Oc5ccc(Cl)cc54)CC3)c12 [Compound 1005] | 0.00183 µM | < 0.5 µM
COc1cnc(-n2cnc(C)n2)c2[nH]cc(C(=O)C(=O)N3CCN(C4=Nc5cc(Cl)ccc5Nc5ccccc54)CC3)c12 [Compound 1006] |  | < 0.5 µM
